In publication PMC10279920, “Single-molecule visualization of Pif1 helicase translocation on single-stranded DNA” (The Journal of Biological Chemistry, 2023):
Where a chain is given by its changes, count along the chain named.

Assays:
Experiment in all cases: ATP hydrolysis, [γ-32P]-ATP TLC, Michaelis-Menten fit
Assay type in all cases: biochemical
Details in all cases: M13 ssDNA 1.5 μM nt, 10 nM Pif1, 5 mM MgCl2, 60 mM KCl, pH 7.5, 30 °C, no RPA; labelled compound as tracer
[1] = biological target: T1, GFP-Pif1 (Saccharomyces cerevisiae, UniProt P07271, T301A)
T1 construct: N-terminal superfolder GFP fusion of nuclear isoform residues 40-859, pRSF-Duet-1, E. coli Rosetta2(DE3), Ni-NTA purified
T1 sequence (P07271 40-859 T301A): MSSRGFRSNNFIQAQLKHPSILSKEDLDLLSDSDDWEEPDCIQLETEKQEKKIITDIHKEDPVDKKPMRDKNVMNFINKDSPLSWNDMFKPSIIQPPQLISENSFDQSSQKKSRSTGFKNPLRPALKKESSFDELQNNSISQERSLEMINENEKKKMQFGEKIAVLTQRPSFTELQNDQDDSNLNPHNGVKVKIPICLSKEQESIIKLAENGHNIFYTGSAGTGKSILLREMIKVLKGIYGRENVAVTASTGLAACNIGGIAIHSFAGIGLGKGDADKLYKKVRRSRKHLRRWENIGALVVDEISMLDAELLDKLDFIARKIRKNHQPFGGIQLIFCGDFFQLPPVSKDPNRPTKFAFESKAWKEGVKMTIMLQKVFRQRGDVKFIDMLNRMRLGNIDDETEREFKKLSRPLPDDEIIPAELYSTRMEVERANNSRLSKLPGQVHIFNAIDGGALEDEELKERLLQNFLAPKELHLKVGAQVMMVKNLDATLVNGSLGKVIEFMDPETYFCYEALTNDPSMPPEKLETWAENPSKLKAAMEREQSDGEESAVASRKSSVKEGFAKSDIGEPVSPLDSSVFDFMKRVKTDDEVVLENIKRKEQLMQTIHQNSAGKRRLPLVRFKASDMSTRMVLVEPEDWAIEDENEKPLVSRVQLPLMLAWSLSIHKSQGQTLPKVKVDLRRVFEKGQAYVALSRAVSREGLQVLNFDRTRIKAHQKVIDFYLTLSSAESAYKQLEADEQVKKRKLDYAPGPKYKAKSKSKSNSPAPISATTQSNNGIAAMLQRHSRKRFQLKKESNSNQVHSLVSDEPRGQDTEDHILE

[2] = biological target: T2, GFP-Pif1 (Saccharomyces cerevisiae, UniProt P07271)
T2 construct: N-terminal superfolder GFP fusion of nuclear isoform residues 40-859, pRSF-Duet-1, E. coli Rosetta2(DE3), Ni-NTA purified
T2 sequence (P07271 40-859): T1 sequence (P07271 40-859 T301A) with A262T
Experimental: ATP hydrolysis, [γ-32P]-ATP TLC, Michaelis-Menten fit on GFP-Pif1 | Values for Vmax, Km, and kcat were determined and compared to WT Pif1

[3] = biological target: T3, GFP-Pif1 (Saccharomyces cerevisiae, UniProt P07271, K387A)
T3 construct: N-terminal superfolder GFP fusion of nuclear isoform residues 40-859, pRSF-Duet-1, E. coli Rosetta2(DE3), Ni-NTA purified
T3 sequence (P07271 40-859 K387A): T1 sequence (P07271 40-859 T301A) with A262T, K348A

[4] = biological target: T4, Pif1 (unlabeled, WT Pif1) (Saccharomyces cerevisiae, UniProt P07271)
T4 construct: nuclear isoform residues 40-859, pRSF-Duet-1, E. coli Rosetta2(DE3), Ni-NTA purified (tag not described), no GFP
T4 sequence (P07271 40-859): T1 sequence (P07271 40-859 T301A) with A262T
Experimental: ATP hydrolysis, [γ-32P]-ATP TLC, Michaelis-Menten fit on Pif1 (unlabeled, WT Pif1) | Values for Vmax, Km, and kcat were determined and compared to WT Pif1

Km [1]: 1000 ± 830 µM
Km [2]: 470 ± 620 µM
Km [3]: 540 ± 290 µM
Km [4]: 490 ± 370 µM
Structure (SMILES): Nc1ncnc2c1ncn2[C@@H]1O[C@H](COP(=O)(O)OP(=O)(O)OP(=O)(O)O)[C@@H](O)[C@H]1O [ATP]
